According to patent US9006188B2, “Co-crystals of dapagliflozin” (Mapi Pharma Ltd., priority 2013, dated 2015):

Experiment: Hygroscopicity by Dynamic Vapor Sorption (DVS), sorption/desorption profile
Format: physicochemical
Conditions: for weight gain from 0 to 95% RH / Change In Mass (%) - ref, Desorption / Change In Mass (%) - ref, Sorption / Change In Mass (%) - ref, Hysteresis: DVS 25° C.; for hygroscopicity classification: based on DVS weight gain from 0 to 95% RH
Procedure: The preparation of lactose co-crystal and asparagine co-crystal were scaled up and repeated (about 400 mg of dapagliflozin free form was dissolved in 26 ml of IPA) and XRPD, PLM, TGA, DSC, NMR and DVS analyses were conducted for physicochemical properties evaluation. Before physicochemical properties evaluation, the solids precipitated out were isolated and dried off at 40° C. for 4 hours in vacuum drier. After hygroscopicity test, the sample was retested by XRPD to determine if any form transformation during the DVS test.
The sorption/desorption profiles of dapagliflozin Form I were tested at 25° C. under 0-95% relative humidity. […] This sample was tested by XRPD.

## CCOc1ccc(Cc2cc(C3OC(CO)C(O)C(O)C3O)ccc2Cl)cc1.NC(=O)CC(N)C(=O)O (stereo not drawn) [Asparagine co-crystal]
  weight gain from 0 to 95% RH: 1.80%
  hygroscopicity classification: slightly hygroscopic
Cycle 1, target 0.0 % P/Po
  Change In Mass (%) - ref, Desorption: 0.159%
  Change In Mass (%) - ref, Sorption: 0.002%
Cycle 1, target 5.0 % P/Po
  Change In Mass (%) - ref, Desorption: 0.302%
  Change In Mass (%) - ref, Hysteresis: 0.071%
  Change In Mass (%) - ref, Sorption: 0.231%
Cycle 1, target 10.0 % P/Po
  Change In Mass (%) - ref, Desorption: 0.341%
  Change In Mass (%) - ref, Hysteresis: 0.071%
  Change In Mass (%) - ref, Sorption: 0.270%
Cycle 1, target 15.0 % P/Po
  Change In Mass (%) - ref, Desorption: 0.364%
  Change In Mass (%) - ref, Hysteresis: 0.060%
  Change In Mass (%) - ref, Sorption: 0.304%
Cycle 1, target 20.0 % P/Po
  Change In Mass (%) - ref, Desorption: 0.371%
  Change In Mass (%) - ref, Hysteresis: 0.035%
  Change In Mass (%) - ref, Sorption: 0.336%
Cycle 1, target 25.0 % P/Po
  Change In Mass (%) - ref, Desorption: 0.392%
  Change In Mass (%) - ref, Hysteresis: 0.022%
  Change In Mass (%) - ref, Sorption: 0.370%
Cycle 1, target 30.0 % P/Po
  Change In Mass (%) - ref, Desorption: 0.412%
  Change In Mass (%) - ref, Hysteresis: 0.009%
  Change In Mass (%) - ref, Sorption: 0.404%
Cycle 1, target 35.0 % P/Po
  Change In Mass (%) - ref, Desorption: 0.440%
  Change In Mass (%) - ref, Hysteresis: −0.006%
  Change In Mass (%) - ref, Sorption: 0.446%
Cycle 1, target 40.0 % P/Po
  Change In Mass (%) - ref, Desorption: 0.474%
  Change In Mass (%) - ref, Hysteresis: −0.020%
  Change In Mass (%) - ref, Sorption: 0.493%
Cycle 1, target 45.0 % P/Po
  Change In Mass (%) - ref, Desorption: 0.517%
  Change In Mass (%) - ref, Hysteresis: −0.026%
  Change In Mass (%) - ref, Sorption: 0.542%
Cycle 1, target 50.0 % P/Po
  Change In Mass (%) - ref, Desorption: 0.565%
  Change In Mass (%) - ref, Hysteresis: −0.042%
  Change In Mass (%) - ref, Sorption: 0.607%
Cycle 1, target 55.0 % P/Po
  Change In Mass (%) - ref, Desorption: 0.600%
  Change In Mass (%) - ref, Hysteresis: −0.073%
  Change In Mass (%) - ref, Sorption: 0.673%
Cycle 1, target 60.0 % P/Po
  Change In Mass (%) - ref, Desorption: 0.650%
  Change In Mass (%) - ref, Hysteresis: −0.086%
  Change In Mass (%) - ref, Sorption: 0.736%
Cycle 1, target 65.0 % P/Po
  Change In Mass (%) - ref, Desorption: 0.729%
  Change In Mass (%) - ref, Hysteresis: −0.057%
  Change In Mass (%) - ref, Sorption: 0.786%
Cycle 1, target 70.0 % P/Po
  Change In Mass (%) - ref, Desorption: 0.794%
  Change In Mass (%) - ref, Hysteresis: −0.075%
  Change In Mass (%) - ref, Sorption: 0.869%
Cycle 1, target 75.0 % P/Po
  Change In Mass (%) - ref, Desorption: 0.878%
  Change In Mass (%) - ref, Hysteresis: −0.078%
  Change In Mass (%) - ref, Sorption: 0.956%
Cycle 1, target 80.0 % P/Po
  Change In Mass (%) - ref, Desorption: 1.031%
  Change In Mass (%) - ref, Hysteresis: −0.041%
  Change In Mass (%) - ref, Sorption: 1.072%
Cycle 1, target 85.0 % P/Po
  Change In Mass (%) - ref, Desorption: 1.171%
  Change In Mass (%) - ref, Hysteresis: −0.030%
  Change In Mass (%) - ref, Sorption: 1.201%
Cycle 1, target 90.0 % P/Po
  Change In Mass (%) - ref, Desorption: 1.378%
  Change In Mass (%) - ref, Hysteresis: −0.019%
  Change In Mass (%) - ref, Sorption: 1.397%
Cycle 1, target 95.0 % P/Po
  Change In Mass (%) - ref, Desorption: 1.798%
  Change In Mass (%) - ref, Sorption: 1.798%

## CCOc1ccc(Cc2cc(C3OC(CO)C(O)C(O)C3O)ccc2Cl)cc1.OCC1OC(OC2C(CO)OC(O)C(O)C2O)C(O)C(O)C1O (stereo not drawn) [lactose co-crystal]
  weight gain from 0 to 95% RH: 2.16%
  hygroscopicity classification: hygroscopic
Cycle 1, target 0.0 % P/Po
  Change In Mass (%) - ref, Desorption: 0.077%
  Change In Mass (%) - ref, Sorption: 0.000%
Cycle 1, target 5.0 % P/Po
  Change In Mass (%) - ref, Desorption: 0.104%
  Change In Mass (%) - ref, Hysteresis: 0.083%
  Change In Mass (%) - ref, Sorption: 0.021%
Cycle 1, target 10.0 % P/Po
  Change In Mass (%) - ref, Desorption: 0.120%
  Change In Mass (%) - ref, Hysteresis: 0.078%
  Change In Mass (%) - ref, Sorption: 0.042%
Cycle 1, target 15.0 % P/Po
  Change In Mass (%) - ref, Desorption: 0.136%
  Change In Mass (%) - ref, Hysteresis: 0.073%
  Change In Mass (%) - ref, Sorption: 0.064%
Cycle 1, target 20.0 % P/Po
  Change In Mass (%) - ref, Desorption: 0.151%
  Change In Mass (%) - ref, Hysteresis: 0.066%
  Change In Mass (%) - ref, Sorption: 0.085%
Cycle 1, target 25.0 % P/Po
  Change In Mass (%) - ref, Desorption: 0.170%
  Change In Mass (%) - ref, Hysteresis: 0.063%
  Change In Mass (%) - ref, Sorption: 0.107%
Cycle 1, target 30.0 % P/Po
  Change In Mass (%) - ref, Desorption: 0.188%
  Change In Mass (%) - ref, Hysteresis: 0.058%
  Change In Mass (%) - ref, Sorption: 0.131%
Cycle 1, target 35.0 % P/Po
  Change In Mass (%) - ref, Desorption: 0.213%
  Change In Mass (%) - ref, Hysteresis: 0.053%
  Change In Mass (%) - ref, Sorption: 0.160%
Cycle 1, target 40.0 % P/Po
  Change In Mass (%) - ref, Desorption: 0.238%
  Change In Mass (%) - ref, Hysteresis: 0.036%
  Change In Mass (%) - ref, Sorption: 0.201%
Cycle 1, target 45.0 % P/Po
  Change In Mass (%) - ref, Desorption: 0.266%
  Change In Mass (%) - ref, Hysteresis: 0.022%
  Change In Mass (%) - ref, Sorption: 0.244%
Cycle 1, target 50.0 % P/Po
  Change In Mass (%) - ref, Desorption: 0.296%
  Change In Mass (%) - ref, Hysteresis: 0.013%
  Change In Mass (%) - ref, Sorption: 0.283%
Cycle 1, target 55.0 % P/Po
  Change In Mass (%) - ref, Desorption: 0.330%
  Change In Mass (%) - ref, Hysteresis: 0.007%
  Change In Mass (%) - ref, Sorption: 0.323%
Cycle 1, target 60.0 % P/Po
  Change In Mass (%) - ref, Desorption: 0.366%
  Change In Mass (%) - ref, Hysteresis: 0.003%
  Change In Mass (%) - ref, Sorption: 0.363%
Cycle 1, target 65.0 % P/Po
  Change In Mass (%) - ref, Desorption: 0.410%
  Change In Mass (%) - ref, Hysteresis: 0.000%
  Change In Mass (%) - ref, Sorption: 0.409%
Cycle 1, target 70.0 % P/Po
  Change In Mass (%) - ref, Desorption: 0.465%
  Change In Mass (%) - ref, Hysteresis: 0.000%
  Change In Mass (%) - ref, Sorption: 0.466%
Cycle 1, target 75.0 % P/Po
  Change In Mass (%) - ref, Desorption: 0.531%
  Change In Mass (%) - ref, Hysteresis: −0.004%
  Change In Mass (%) - ref, Sorption: 0.534%
Cycle 1, target 80.0 % P/Po
  Change In Mass (%) - ref, Desorption: 0.618%
  Change In Mass (%) - ref, Hysteresis: −0.004%
  Change In Mass (%) - ref, Sorption: 0.622%
Cycle 1, target 85.0 % P/Po
  Change In Mass (%) - ref, Desorption: 0.768%
  Change In Mass (%) - ref, Hysteresis: 0.005%
  Change In Mass (%) - ref, Sorption: 0.762%
Cycle 1, target 90.0 % P/Po
  Change In Mass (%) - ref, Desorption: 1.081%
  Change In Mass (%) - ref, Hysteresis: 0.069%
  Change In Mass (%) - ref, Sorption: 1.012%
Cycle 1, target 95.0 % P/Po
  Change In Mass (%) - ref, Desorption: 2.162%
  Change In Mass (%) - ref, Sorption: 2.162%
